These results are taken from patent US20080096967A1, “Formulations for Injection of Catecholic Butanes, Including Ndga Compounds, Into Animals” (priority 2005, published 2008).

As usually defined, the Cmax is the maximum level reached in the sampled fluid or tissue. The Tmax is the time from dosing to the highest level.

Data set [1] has as its system Beagle dogs. Put plainly: Intravenous infusion toxicity study (maximum tolerable dose, escalating doses) in Beagle dogs. The data set is classed as in vivo. On the procedure: The purpose of this study was to determine the maximum tolerable dose of tetra-O-methyl NDGA (M4N) when administered by intravenous infusion to male and female Beagle dogs, supplied by Convince Research Products (Cumberland, Va., U.S.A). Two Beagle dogs, one male and one female, about 6 to 9 months old at first dose, were administered the cyclodextrin vehicle containing 20% (w/v) HP-β-CD and 50% PEG 300, on Study Day (“SD”) 1, followed by escalating levels of M4N prepared in the cyclodextrin vehicle (i.e., the test articles). The preformed cyclodextrin vehicle and test articles were stored at room temperature. Sterile water, used as diluent, was obtained from Baxter Health Care Corp. (Deerfield, Mich., U.S.A) or Abbott Laboratories (North Chicago, Ill., U.S.A.) and stored at room temperature.
The test article, cyclodextrin vehicle and diluent were considered 100% pure for formulation purposes. Dose formulations were prepared on each day of dosing by adding the appropriate amount of test article or cyclodextrin vehicle into a glass container using a sterile syringe. For each dose, an equal amount of sterile water was added to the M4N formulation or cyclodextrin vehicle to form a 50:50 (v/v) dilution. No dilution was required for the 200 mg/kg dose. All formulations were mixed by gentle inversion to ensure that a proper solution was formed. Formulations were loaded into medication cassettes and stored at room temperature until needed.
M4N was administered at 25 mg/kg on SD 3, 50 mg/kg on SD 5, and 100 mg/kg on SD 8. Only the female received the full 100 mg/kg dose; due to mechanical malfunctions caused by precipitation in the infusion line, the male dog received approximately 72 mg/kg (i.e., 72%) of the intended dose. Two additional Beagle dogs were administered a 200 mg/kg dose; however, mechanical difficulties ensued and the male dog received approximately 180 mg/kg (90%) of the intended dose, whereas the amount the female received could not be determined.
Using aseptic surgical techniques, the animals were catheterized with an in-dwelling catheter inserted into the jugular vein, and were treated prophylactically with an analgesic and antibiotic on the day of surgery and with antibiotics and/or analgesics for 8 days following surgery.
Following completion of each intravenous infusion, 1 mL of sterile saline was administered as a slow bolus injection to flush the test material from the infusion line into the animal, followed by an injection of heparin-saline solution to fill the infusion line to maintain patency. The animals were observed. Cageside observation included observation for mortality, morbundity, general health, and signs of toxicity. […]

A short description of data set [2]: 40 mg/mL M4N/PEG 300 stability: RP-HPLC analysis. The class given is physicochemical. On the procedure: The stability of 40 mg/mL M4N dissolved in 100% PEG 300 was evaluated up to 24 hours incubation at 30° C., 45° C. and 60° C. A stock 40 mg/mL M4N in PEG 300 was prepared at 60° C., following the procedure set forth in Example 17. Subsequently, aliquots were removed and incubated at the appropriate temperature. Samples were rotated at 450 rpm during the entire course of incubation. Visual observations and RP-HPLC data were collected throughout. […] The formation of crystals coincided with a loss of soluble M4N (Table 30). The 40 mg/mL M4N/PEG 300 samples incubated at 45° C. and 60° C. were stable after 24 hours incubation as assessed by visual observations and RP-HPLC analysis (Tables 29 and 30).

A short description of data set [3]: Human Phase 0 three-way crossover microdose pharmacokinetic study of 14C-labelled M4N (AMS). The class given is in vivo. The source says: This study was designed to assess the absorption of […] when administered to humans as a sub-therapeutic dose either as a single oral dose under fed and fasted conditions or a single intravenous dose (Regimens A-C, respectively, in Table 24). […] During the course of each study period, pharmacokinetic blood samples were taken at specified time points after dosing and urine was collected over pre-defined time intervals. The subjects were able to leave the clinical unit after the completion of study specific procedures at 24 hours post-dose. In this study, […] was administered to humans in a 100 μg quantity. […] Each oral administration of […] consisted of 0.1 mg of ^14C labeled […] and 376.8 mg of glycerol monooleate in a size 0 gelatin capsule. […] The baseline levels of […] were corrected for any residual […] remaining in the subjects following the periods between dosing so as not to inflate the levels of […] for any subsequent dosing.

Details of data set [4]: species or system Beagle dogs. The settings on record: in vivo. On the procedure: Following completion of each intravenous infusion, 1 mL of sterile saline was administered as a slow bolus injection to flush the test material from the infusion line into the animal, followed by an injection of heparin-saline solution to fill the infusion line to maintain patency. The animals were observed. Cageside observation included observation for mortality, morbundity, general health, and signs of toxicity. Clinical observations included evaluation of skin and fur characteristics, surgical site, eye and mucous membranes, respiratory, circulatory, autonomic and central nervous systems, and somatomotor and behavior patterns. Blood was collected and placed into 2.5 mL serum separator tubes for serum M4N concentration analysis. The tubes were inverted several times, stored on wet ice, and centrifuged at about 3000 rpm for about 10 min. at 4° C. Serum was transferred to microcentrifuge tubes and stored at −75±10° C.
Samples were shipped on dry ice to the Analytical Chemistry Laboratory of GeneLogic (Gaithersburg, Md., U.S.A.) for test article analysis. The method involved treating aliquots of dog serum, at least 0.5 mL, with acetonitrile, filtering, and injecting the filtrate onto an HPLC column with tandem mass-spectrometry detection (LC-MS/MS). The analyte was quantified using an external standard curve with triazolam as an internal standard.

Molecules are shown by their SMILES. Read-outs that look alike come from different tables or passages of the source. Marks after values point to notes of the source that are not given here.

For `COc1ccc(C[C@@H](C)[C@@H](C)Cc2ccc(OC)c(OC)c2)cc1OC` [Formulation M4N, meso-1,4-bis(3,4-dimethoxyphenyl)-2,3-dimethylbutane], in data set [1] (Male dog 10567, SD13), the “Individual Body Weights” value was determined as 10.2 kg. The “gross pathology and microscopic changes” value in data set [1] (dog, in vivo) is “no test-article related gross pathology findings or microscopic changes”. Besides, in data set [1] (dog, in vivo, iv), the “doses at which no treatment-related adverse effects were observed” value is listed as “up to 200 mg/kg”. Moreover, in data set [1] (escalating IV infusion doses 25 to 200 mg/kg in 20% HP-β-CD/50% PEG 300 vehicle), the mortality result was “no effect”. In addition, the impurities peaks entry in data set [2] (40 mg/mL M4N/PEG 300, 30° C., 45° C. and 60° C.) is “No changes”. The “loss in soluble M4N” value in data set [2] (40 mg/mL M4N/PEG 300, 24 hours at 30° C.) is listed as greater than 5%. The T½ in data set [3] (Regimen A (oral, fed): 100 μg single oral dose following a high fat breakfast, 14C, baseline corrected, mean ± SD) amounted to 96.5 ± 20.7 h; in data set [3] (Regimen B (oral, fasted): 100 μg single oral dose following an overnight fast, 14C, baseline corrected, mean ± SD), 50.9 ± 22.4 h; in data set [3] (Regimen C (Intravenous): 100 μg as 1 mL bolus intravenous solution following an overnight fast, 14C, baseline corrected, mean ± SD), 116.2 ± 64.0 h. Also, the peak concentration (Cmax) in data set [3] (Regimen A (oral, fed): 100 μg single oral dose following a high fat breakfast, 14C, baseline corrected, mean ± SD, read-out: Cmax) worked out at 5.94 ± 1.33 pM; in data set [3] (Regimen B (oral, fasted): 100 μg single oral dose following an overnight fast, 14C, baseline corrected, mean ± SD, read-out: Cmax) it was 9.29 ± 1.4 pM; in data set [3] (Regimen C (Intravenous): 100 μg as 1 mL bolus intravenous solution following an overnight fast, 14C, baseline corrected, mean ± SD, read-out: Cmax) it was 10.3 ± 1.77 pM; in data set [3] (oral 100 μg 14C-labelled M4N after a high fat breakfast, mean±SD, read-out: Cmax for total 14C) it was 5.94 ± 1.33 pM; in data set [3] (oral 100 μg 14C-labelled M4N after an overnight fast, mean±SD, read-out: Cmax for total 14C), 9.29 ± 1.4 pM; in data set [3] (single intravenous dose 100 μg in 30% HP-β-CD, 25% PEG, mean±SD, read-out: Cmax for total 14C) it was 10.3 ± 1.77 pM. The Tmax was 2.50^a hours in data set [3] (Regimen A (oral, fed): 100 μg single oral dose following a high fat breakfast, 14C, baseline corrected, median); 1.00^a hours in data set [3] (Regimen B (oral, fasted): 100 μg single oral dose following an overnight fast, 14C, baseline corrected, median); 0.08^a hours in data set [3] (Regimen C (Intravenous): 100 μg as 1 mL bolus intravenous solution following an overnight fast, 14C, baseline corrected, median); 0.08 h in data set [3] (intravenous dose, eight of the ten subjects (first sampling time)); 0.17 h in data set [3] (intravenous dose, two subjects); roughly 1 h in data set [3] (oral, fasted subjects). Also, the apparent absorption entry in data set [3] (oral administration, fed and fasted state) is “very high”. For the same molecule, in data set [4] (dog), the “M4N in serum 16 hr following the infusion period” value was “still detectable”. Moreover, in data set [4], the “M4N serum levels, female dog vs male dog” value is reported as “higher in the female dog”.
